Reference: patent US9499496B2, “Inhibitors of respiratory syncytial virus” (University of Kansas, priority 2012, dated 2016)
Several values for one entry are separate records, joined by “and”; a condition that tells them apart may be missing. Equal values may be shown once. Read-outs that look alike come from different tables or passages of the source. Marks after values point to notes of the source that are not given here.

Experiments:
[1] = system: Ricerca LeadProfiling screen made up of 67 assays; experiment: Ricerca LeadProfiling screen, all other targets of the 67 assays; format: binding; conditions: 10 μM, duplicate
vaccinia = format: cell-based
[2] = system: Venezuelan equine encephalitis; format: cell-based
in vitro [3] = conditions: human
RSV [4] = experiment: Time of addition CPE assay; format: cell-based, RSV Long strain; conditions: for Change in cell viability with time of addition: addition at time points between 7-24 hours post-infection
Procedure: Assay Description: HEp-2 cells were plated in 96 well black tissue culture plates at 10,000 cells per well in 80 μl and incubated 24 hours at 37° C., 5% CO2. All cell plating was conducted using a Matrix WellMate™ and cells were maintained at room temperature with stirring during the plating process. Compounds were diluted in media to give a final concentration of 25 μM and added to plates at −1, 0, 1, 4, 6, 20 and 24 hours post-infection (p.i.). The cells were infected with RSV Long strain at an MOI of 3 and the assay plates were incubated for six days at 37° C., 5% CO2 and 90% relative humidity.
The Cell Titer Glo® assay was used to determine viability of the cells. The assay plates were equilibrated to room temperature for 10 minutes and then an equal volume of Cell Titer-Glo reagent (Promega Inc.) was added to each well. Plates were incubated for 10 min at room temperature and luminescence was measured using a multi-label plate reader with an integration time of 0.1 s.
A cell-based assay was used to determine the ability of the probe to inhibit different stages of a single round of viral replication. […] Compounds B and F (diamonds and squares, respectively) are of similar chemical structure. The percent cell viability values at each time point for the respective molecules are compared with that of ribavirin (RBV). […] This sustained efficacy may be due to the inhibition of one or more late virus life cycle steps (post-entry or late-stage infection processes), and this hypothesis is supported by an ability to affect processes later in the viral replication cycle.

RSV [5] = experiment: RSV CPE assay (inhibition of RSV-induced cytopathic effect, luminescent cell viability readout); format: cell-based, RSV (strain Long); conditions: for Selectivity Index (CC50/EC50): antiviral activity over HEp-2 cell cytotoxicity
[6] = system: Calcium Channel L-Type, Benzothiazepine; experiment: Ricerca LeadProfiling screen; format: binding; conditions: 10 μM, duplicate, rat
influenza A = format: cell-based
[7] = system: Calcium Channel L-Type, Dihydropyridine; experiment: Ricerca LeadProfiling screen; format: binding; conditions: 10 μM, duplicate, rat
RSV [8] = experiment: RSV plaque reduction assay (titer reduction); format: cell-based, RSV Long strain; conditions: HEp-2 cells; for Plaque Reduction Assay (log reduction) at 10 μM: 10 μM test compound; for Plaque Reduction Assay (log reduction): concentration not given
dengue viruses = format: cell-based
[9] = Stability in PBS over 48 h; conditions: for Stability in PBS (% parent remaining after 48 h), with acetonitrile: PBS with 50% acetonitrile; for Stability in PBS (% parent remaining after 48 h): no additives, 23° C.
HEp-2 cells = conditions: HEp-2 cell cytotoxicity
physchem [10] = conditions: plasma or biological fluid
physchem [11] = conditions: 23 °C, pH 7.4, aqueous buffer
in vitro [12] = conditions: PAMPA
[13] = human respiratory syncytial virus, HEp-2 cells, RSV-induced CPE, read-out: CPE Assay EC50

Structure (SMILES) | CC50 at 6 days (in vitro [3]; CC50, HEp-2 cell cytotoxicity) [µM] | Change in cell viability with time of addition (RSV [4]) | Plaque Reduction Assay (log reduction) at 10 μM (RSV [8]) | Plaque Reduction Assay (log reduction) (RSV [8]) | EC50 (RSV [5]; [13]) [µM] | Selectivity Index (CC50/EC50) (RSV [5]) | solubility (physchem [10]) | solubility (physchem [11]) | further results
COCCCNC(=O)c1ccc(Cn2c(=O)c3ccccc3n(Cc3ccc(C(C)C)cc3)c2=O)cc1 [Compound A, 4-((1-(4-isopropylbenzyl)-2,4-dioxo-1,2-dihydroquinazolin-3(4H)-yl)methyl)-N-(3-methoxypropyl)benzamide] | > 200 | does not result in a dramatic change in cell viability | 6.7 log reduction and 6.70 log reduction | 6.70 log reduction | – | – | – | – | Inhibition, all other targets [1]: below 34%; Efficacy in inhibiting vaccinia (vaccinia): no efficacy; Efficacy in inhibiting Venezuelan equine encephalitis virus [2]: no efficacy; Latest effective time of addition (RSV [4]; single round of viral replication, compound added −1 to 24 h post-infection): > 24 hours post-infection; EC50 (RSV [5]; human respiratory syncytial virus, read-out: RSV CPE assay, repeated, repeat of the RSV CPE assay): 0.34 µM; EC50 (RSV [5]; read-out: CPE Assay EC50, HEp-2 cells, RSV-induced CPE): 0.81 µM; Percent Inhibition [6]: 52%; Efficacy in inhibiting influenza A (influenza A): no efficacy; Percent Inhibition [7]: 70%; Efficacy in inhibiting dengue viruses (dengue viruses): no efficacy
COCCCNC(=O)c1ccc(Cn2c(=O)c3ccccc3n(Cc3ccc([N+](=O)[O-])cc3)c2=O)cc1 [Compound B, N-(3-methoxypropyl)-4-((1-(4-nitrobenzyl)-2,4-dioxo-1,2-dihydroquinazolin-3(4H)-yl)methyl)benzamide] | 128 ± 4.24 | does not result in a dramatic change in cell viability | >5.56 log reduction | >5.56^a log reduction | 0.57 ± 0.014 | – | – | – | Stability in PBS (% parent remaining after 48 h), with acetonitrile [9]: 94.9% (with; Stability in PBS (% parent remaining after 48 h) [9]: 83.4% (PBS);; CC50 (HEp-2 cells): > 128 µM; EC50 (RSV [5]; human respiratory syncytial virus, repeat of the RSV CPE assay, read-out: RSV CPE assay, repeated): 0.2 µM
COCCCNC(=O)c1ccc(Cn2c(=O)c3ccccc3n(Cc3ccc(Br)cc3)c2=O)cc1 [Compound C, 4-((1-(4-bromobenzyl)-2,4-dioxo-1,2-dihydroquinazolin-3(4H)-yl)methyl)-N-(3-methoxypropyl)benzamide] | 98.9 ± 8.7 | – | 4.07 log reduction | 4.07 log reduction | 0.85 ± 0.15 | 118.9 | 2.7 µg/mL and 5.03 µM | 0.31 µg/mL and 0.58 µM | Stability in PBS (% parent remaining after 48 h), with acetonitrile [9]: 100% (with; Stability in PBS (% parent remaining after 48 h) [9]: 57.5% (PBS);
CCc1ccc(Cn2c(=O)n(Cc3ccc(C(=O)NCCCOC)cc3)c(=O)c3ccccc32)cc1 [Compound D, 4-((1-(4-ethylbenzyl)-2,4-dioxo-1,2-dihydroquinazolin-3(4H)-yl)methyl)-N-(3-methoxypropyl)benzamide] | 94.9 ± 3.75 | – | 5.90 log reduction | 5.90 log reduction | 1 ± 0.05 | 94.9 and 94.5 | 1.5 µg/mL and 3.09 µM | – | –
CN(C)c1ccc(Cn2c(=O)n(Cc3ccc(C(=O)NCC4COC4)cc3)c(=O)c3ccccc32)cc1 [Compound E, 4-((1-(4-(dimethylamino)benzyl)-2,4-dioxo-1,2-dihydroquinazolin-3(4H)-yl)methyl)-N-(oxetan-3-ylmethyl)benzamide] | ~50 | – | >6.18 log reduction | >6.18 log reduction | 1.07 ± 0.22 | 41.8 | 9.2 µg/mL and 18.4 µM | 5.6 µg/mL and 11.2 µM | CC50 (HEp-2 cells): 44.7 ± 7.22 µM; Plaque Reduction Assay (log reduction) (RSV [8]; listed as FIG. 5, entry 7): > 6 log reduction
Cc1ccc(Cn2c(=O)n(Cc3ccc(C(=O)NCC4COC4)cc3)c(=O)c3ccccc32)cc1 [Compound F, 4-((1-(4-methylbenzyl)-2,4-dioxo-1,2-dihydroquinazolin-3(4H)-yl)methyl)-N-(oxetan-3-ylmethyl)benzamide] | – | does not result in a dramatic change in cell viability | 5.10 log reduction | 5.1 log reduction | 0.71 ± 0.13 | – | 4.5 µg/mL and 9.58 µM | 4.5 µg/mL and 0.75 µM | EC50 (RSV [5]; human respiratory syncytial virus, HEp-2 cells, read-out: CPE EC50 (potency) as given): ~0.7 µM
CNC(=C[N+](=O)[O-])NCCSCc1ccc(CN(C)C)o1 [Ranitidine] | – | – | – | – | – | – | – | – | Papp (in vitro [12]): < 10 ×10⁻⁶ cm/s; Papp (in vitro [12]; pH 7.4): < 10 ×10⁻⁶ cm/s
COCCCNC(=O)c1ccc(Cn2c(=O)c3ccccc3n(Cc3ccc(C)cc3)c2=O)cc1 [hit compound, 4-((1-(4-methylbenzyl)-2,4-dioxo-1,2-dihydroquinazolin-3(4H)-yl)methyl)-N-(3-methoxypropyl)benzamide] | 59.5 | – | – | 4.15 log reduction | 2.14 | – | – | – | –
NC(=O)c1ncn([C@@H]2O[C@H](CO)[C@@H](O)[C@H]2O)n1 [ribavirin, reference compound] | – | – | 2.47 log reduction | – | 28.4 | – | – | – | CC50 at 6 days (in vitro [3]): 114 ± 38.5 µM; Protection of cells from RSV-induced CPE (RSV [4]; added up to 7 hours post-infection): approximately 100%
